The results in this text go back to ChEMBL document CHEMBL4330122, “Modified ribavirin analogues as antiviral agents against Junín virus” (Bioorg Med Chem Lett, 2019).

pEC50: −log10 of the molar value. Bounds are passed on as bounds.

Series [1] in a line: Solubility of the compound in water. It counts as physicochemical.
Series [2] in a line: Cytotoxicity against human A549 cells assessed as reduction in cell viability after 48 hrs by MTT assay. The series is classed as cell-based.
Series [3] relates to Junin virus. The series is classed as functional, organism-based. Conditions: Mammarenavirus juninense, IV4454, A549, 48 h.
A short description of series [4]: Cytotoxicity against African green monkey Vero cells assessed as reduction in cell viability after 48 hrs by MTT assay. It counts as cell-based. The note with it: chlorocebus sabaeus.
Series [5] relates to Junin virus. It counts as functional, organism-based. The note with it: Mammarenavirus juninense, IV4454, Vero, 48 h.
Series [6] is described as follows: in vitro. Conditions: human, A549 cells.
Series [7] is described as follows: in vitro. The note with it: monkey, Vero cells.

A word on the solubility: it is the dissolved amount per volume that the medium holds. As a reminder, the CC50 is the concentration giving 50% cytotoxicity. By pEC50 is commonly meant the negative decadic logarithm of the EC50, by convention in mol/L. `CC1(C)O[C@@H]2[C@H](O1)[C@@H](Cn1cc(COC[C@H]3OC(O)[C@H](O)[C@@H](O)[C@H]3O)nn1)O[C@H]2n1cc(COCC(COCc2cn([C@@H]3O[C@H](Cn4cc(COC[C@H]5OC(O)[C@H](O)[C@@H](O)[C@H]5O)nn4)[C@H]4OC(C)(C)O[C@H]43)nn2)(COCc2cn([C@@H]3O[C@H](Cn4cc(COC[C@H]5OC(O)[C@H](O)[C@@H](O)[C@H]5O)nn4)[C@H]4OC(C)(C)O[C@H]43)nn2)COCc2cn([C@@H]3O[C@H](Cn4cc(COC[C@H]5OC(O)[C@H](O)[C@@H](O)[C@H]5O)nn4)[C@H]4OC(C)(C)O[C@H]43)nn2)nn1` (some centres not stated) displayed a solubility in series [1] of more than 100 mg/mL. Further, the CC50 at 48 h in series [2] and in series [4] was more than 1000 µM each time. The pEC50 in the series with Junin virus [3] was 3.92; with Junin virus [5], 3.93. In addition, the selectivity ratio in the series “in vitro [6]” is more than 8.4; in “in vitro [7]” it was more than 8.6.
